Data as given in US8202885B2, “Bridged six-membered ring compounds” (Actelion Pharmaceuticals Ltd., priority 2007, dated 2012).
Several values for one entry are separate records, joined by “and”; a condition that tells them apart may be missing. Identical values can stand only once.

The compounds below were run on human Cav3.1 Cav3.2 or Cav3.3 channel (assay: In vitro assay T channel (FLIPR calcium fluorescence)). Details: HEK293 cells expressing human Cav3.1, Cav3.2 or Cav3.3; 10 mM Ca2+-induced fluo-4 fluorescence; determined up to 10 μM; read-out: T channel antagonistic activity IC50.
Format: cell-based
Method: The T channel antagonistic activity (IC50 values) of the compounds of formula (I) is determined in accordance with the following experimental method and data are shown in Table 1.
Human embryonic kidney (HEK293) cells expressing the human Cav3.1 Cav3.2 or Cav3.3 channel, respectively, are grown in culture medium (DMEM containing 10% heat-inactivated fetal calf serum (FCS), 100 U/ml penicillin, 100 μg/ml streptomycin and 1 mg/ml G418). The cells are seeded at 20.000 cells/well into 384-well black clear bottom sterile plates (poly-L-lysine-coated, Becton Dickinson). The seeded plates are incubated overnight at 37° C. in 5% CO2. The Ca^2+ solution is prepared as 100 mM stock solution in 100 mM tetraethylammoniumchloride (TEA-chloride), 50 mM HEPES, 2.5 mM CaCl2, 5 mM KCl, 1 mM MgCl2, adjusted to pH 7.2 with TEA-hydroxide, for use in the assay at a final concentration of 10 mM. Antagonists are prepared as 10 mM stock solutions in DMSO, then diluted in 384 w plates first in DMSO, then in 100 mM TEA-chloride, 50 mM HEPES, 2.5 mM CaCl2, 5 mM KCl, 1 mM MgCl2, adjusted to pH 7.2 with TEA-hydroxide, to obtain 9× stocks. On the day of the assay, 25 μl of staining buffer (HBSS containing 20 mM HEPES, 0.375 g/l NaHCO3 and 3 μM of the fluorescent calcium indicator fluo-4 AM (1 mM stock solution in DMSO, containing 10% pluronic) is added to each well of the seeded plate. The 384-well cell-plates are incubated for 60 min at 37° C. in 5% CO2 followed by washing with 2×50 μl per well using HBSS containing 0.1% BSA, 20 mM HEPES, 0.375 g/l NaHCO3, leaving 50 […] of this buffer for equilibration at room temperature (30-60 min). Within the Fluorescent Imaging Plate Reader (FLIPR, Molecular Devices), antagonists are added to the plate in a volume of 6.25 μl/well, incubated for 3 min, and finally 6.25 […] of Ca^2+ solution is added. Fluorescence is measured for each well at 2 second intervals for 8 minutes, and the area under the curve of each fluorescence peak is compared to the area of the fluorescence peak induced by 10 mM Ca^2+ with vehicle in place of antagonist. For each antagonist, the IC50 value (the concentration (in nM) of compound needed to inhibit 50% of the Ca^2+-induced fluorescence response) up to 10 μM is determined.

IC50 | Structure (SMILES)
2.05 µM | CC(C)C(=O)OC1(CCN(C)CCCc2nc3ccccc3[nH]2)CC2CCC1C1=C2CCc2ccccc21 (racemic) [Example 18A, rac-Isobutyric acid (1R*,3R*,4R*)-1,2,3,4,9,10-hexahydro-3-hydroxy-3-{N-methyl-N-(3-benzimidazol-2-ylpropyl)aminoethyl}-1,4-ethanophenanthrene ester]
> 10 µM | COc1ccc(C2=CC3CCC2CC3(O)CCN(C)CCCc2nc3ccccc3[nH]2)cc1 (racemic) [Example 22, rac-(1R*,2R*,4R*)-2-(2-{[3-(1H-Benzoimidazol-2-yl)-propyl]-methyl-amino}-ethyl)-5-(4-methoxy-phenyl)-2-yl-bicyclo[2.2.2]oct-5-en-2-ol]
3.31 µM | COc1ccccc1C1=CC2CCC1CC2(O)CCN(C)CCCc1nc2ccccc2[nH]1 (racemic) [Example 23, rac-(1R*,2R*,4R*)-2-(2-{[3-(1H-Benzoimidazol-2-yl)-propyl]-methyl-amino}-ethyl)-5-(2-methoxy-phenyl)-2-yl-bicyclo[2.2.2]oct-5-en-2-ol]
1.75 µM and 2 µM | CC(C)C(=O)OC1(CCN(C)CCCc2nc3ccccc3[nH]2)CC2CCC1CC2c1ccccc1 (racemic) [Example 73A, rac-Isobutyric acid (1R*,2R*,4R*,5S*)-2-(2-{[3-(1H-benzoimidazol-2-yl)-propyl]-methyl-amino}-ethyl)-5-phenyl-bicyclo[2.2.2]oct-2-yl ester and rac-isobutyric acid (1R*,2R*,4R*,5R*)-2-(2-{[3-(1H-benzoimidazol-2-yl)-propyl]-methyl-amino}-ethyl)-5-phenyl-bicyclo[2.2.2]oct-2-yl ester]
2.29 µM | CN(CCCc1nc2ccccc2[nH]1)CC[C@]1(O)C[C@H]2CC[C@@H]1C=C2c1ccccc1 (relative stereo) [Example 1, rac-(1R*,2R*,4R*)-2-(2-{[3-(1H-Benzoimidazol-2-yl)-propyl]-methyl-amino}-ethyl)-5-phenyl-bicyclo[2.2.2]oct-5-en-2-ol]
4.94 µM | CC(C)C(=O)O[C@@]1(CCN(C)CCCc2nc3ccccc3[nH]2)C[C@H]2CC[C@@H]1C=C2c1ccccc1 (relative stereo) [Example 1A, rac-Isobutyric acid (1R*,2R*,4R*)-2-(2-{[3-(1H-Benzoimidazol-2-yl)-propyl]-methyl-amino}-ethyl)-5-phenyl-bicyclo[2.2.2]oct-5-en-2-yl ester]
5.98 µM | COc1cccc(C2=C[C@H]3CC[C@@H]2C[C@@]3(O)CCN(C)CCCc2nc3ccccc3[nH]2)c1 (relative stereo) [Example 2, rac-(1R*,2R*,4R*)-2-(2-{[3-(1H-Benzoimidazol-2-yl)-propyl]-methyl-amino}-ethyl)-5-(3-methoxy-phenyl)-bicyclo[2.2.2]oct-5-en-2-ol]
6.63 µM | Cc1cccc(C)c1C1=C[C@H]2CC[C@@H]1C[C@@]2(O)CCN(C)CCCc1nc2ccccc2[nH]1 (relative stereo) [Example 3, rac-(1R*,2R*,4R*)-2-(2-{[3-(1H-Benzoimidazol-2-yl)-propyl]-methyl-amino}-ethyl)-5-(2,6-dimethyl-phenyl)-bicyclo[2.2.2]oct-5-en-2-ol]
4.6 µM | Cc1cccc(C)c1C1=C[C@H]2CC[C@@H]1C[C@]2(CCN(C)CCCc1nc2ccccc2[nH]1)OC(=O)C(C)C (relative stereo) [Example 3A, rac-Isobutyric acid (1R*,2R*,4R*)-2-(2-{[3-(1H-benzoimidazol-2-yl)-propyl]-methyl-amino}-ethyl)-5-(2,6-dimethyl-phenyl)-bicyclo[2.2.2]oct-5-en-2-yl ester]
3.61 µM | Cc1ccccc1C1=C[C@H]2CC[C@@H]1C[C@@]2(O)CCN(C)CCCc1nc2ccccc2[nH]1 (relative stereo) [Example 4, rac-(1R*,2R*,4R*)-2-(2-{[3-(1H-Benzoimidazol-2-yl)-propyl]-methyl-amino}-ethyl)-5-(2-methyl-phenyl)-bicyclo[2.2.2]oct-5-en-2-ol]
4.22 µM | Cc1ccccc1C1=C[C@H]2CC[C@@H]1C[C@]2(CCN(C)CCCc1nc2ccccc2[nH]1)OC(=O)C(C)C (relative stereo) [Example 4A, rac-Isobutyric acid (1R*,2R*,4R*)-2-(2-{[3-(1H-benzoimidazol-2-yl)-propyl]-methyl-amino}-ethyl)-5-(2-methyl-phenyl)-bicyclo[2.2.2]oct-5-en-2-yl ester]
8.42 µM | Cc1cccc(C2=C[C@H]3CC[C@@H]2C[C@@]3(O)CCN(C)CCCc2nc3ccccc3[nH]2)c1 (relative stereo) [Example 5, rac-(1R*,2R*,4R*)-2-(2-{[3-(1H-Benzoimidazol-2-yl)-propyl]-methyl-amino}-ethyl)-5-(3-methyl-phenyl)-bicyclo[2.2.2]oct-5-en-2-ol]
3.45 µM | Cc1cccc(C2=C[C@H]3CC[C@@H]2C[C@]3(CCN(C)CCCc2nc3ccccc3[nH]2)OC(=O)C(C)C)c1 (relative stereo) [Example 5A, rac-Isobutyric acid (1R*,2R*,4R*)-2-(2-{[3-(1H-benzoimidazol-2-yl)-propyl]-methyl-amino}-ethyl)-5-(3-methyl-phenyl)-bicyclo[2.2.2]oct-5-en-2-yl ester]
4.85 µM | Cc1ccc(C2=C[C@H]3CC[C@@H]2C[C@@]3(O)CCN(C)CCCc2nc3ccccc3[nH]2)cc1 (relative stereo) [Example 6, rac-(1R*,2R*,4R*)-2-(2-{[3-(1H-Benzoimidazol-2-yl)-propyl]-methyl-amino}-ethyl)-5-(4-methyl-phenyl)-bicyclo[2.2.2]oct-5-en-2-ol]
6.83 µM | Cc1ccc(C2=C[C@H]3CC[C@@H]2C[C@]3(CCN(C)CCCc2nc3ccccc3[nH]2)OC(=O)C(C)C)cc1 (relative stereo) [Example 6A, rac-Isobutyric acid (1R*,2R*,4R*)-2-(2-{[3-(1H-benzoimidazol-2-yl)-propyl]-methyl-amino}-ethyl)-5-(4-methyl-phenyl)-bicyclo[2.2.2]oct-5-en-2-yl ester]
4.4 µM | CN(CCCc1nc2ccccc2[nH]1)CC[C@]1(O)C[C@H]2CC[C@@H]1C=C2c1cccc(F)c1 (relative stereo) [Example 7, rac-(1R*,2R*,4R*)-2-(2-{[3-(1H-Benzoimidazol-2-yl)-propyl]-methyl-amino}-ethyl)-5-(3-fluoro-phenyl)-bicyclo[2.2.2]oct-5-en-2-ol]
3.14 µM | CC(C)C(=O)O[C@@]1(CCN(C)CCCc2nc3ccccc3[nH]2)C[C@H]2CC[C@@H]1C=C2c1cccc(F)c1 (relative stereo) [Example 7A, rac-Isobutyric acid (1R*,2R*,4R*)-2-(2-{[3-(1H-benzoimidazol-2-yl)-propyl]-methyl-amino}-ethyl)-5-(3-fluoro-phenyl)-bicyclo[2.2.2]oct-5-en-2-yl ester]
1.79 µM | CN(CCCc1nc2ccccc2[nH]1)CC[C@]1(O)C[C@H]2CC[C@@H]1C=C2c1ccc(F)cc1 (relative stereo) [Example 8, rac-(1R*,2R*,4R*)-2-(2-{[3-(1H-Benzoimidazol-2-yl)-propyl]-methyl-amino}-ethyl)-5-(4-fluoro-phenyl)-bicyclo[2.2.2]oct-5-en-2-ol]
1.63 µM | CC(C)C(=O)O[C@@]1(CCN(C)CCCc2nc3ccccc3[nH]2)C[C@H]2CC[C@@H]1C=C2c1ccc(F)cc1 (relative stereo) [Example 8A, rac-Isobutyric acid (1R*,2R*,4R*)-2-(2-{[3-(1H-benzoimidazol-2-yl)-propyl]-methyl-amino}-ethyl)-5-(4-fluoro-phenyl)-bicyclo[2.2.2]oct-5-en-2-yl ester]
> 10 µM | CN(CCCc1nc2ccccc2[nH]1)CC[C@]1(O)C[C@H]2CC[C@@H]1C=C2c1cccnc1 (relative stereo) [Example 9, rac-(1R*,2R*,4R*)-2-(2-{[3-(1H-Benzoimidazol-2-yl)-propyl]-methyl-amino}-ethyl)-5-pyridin-3-yl-bicyclo[2.2.2]oct-5-en-2-ol]
2.34 µM | CC(C)C(=O)O[C@@]1(CCN(C)CCCc2nc3ccccc3[nH]2)C[C@H]2CC[C@@H]1C=C2c1cccnc1 (relative stereo) [Example 9A, rac-Isobutyric acid (1R*,2R*,4R*)-2-(2-{[3-(1H-benzoimidazol-2-yl)-propyl]-methyl-amino}-ethyl)-5-pyridin-3-yl-bicyclo[2.2.2]oct-5-en-2-yl ester]
